# Columns and labels:
# [1] = test system: Bradyrhizobium japonicum USDA 3; experiment: LCO production by wild type USDA3 (XAD resin extraction, HPLC); type: cell-based; conditions: for production of LCOs, in words: at optimum concentrations
# Method: Bradyrhizobium japonicum (strain USDA 3) was grown at 28° C. in yeast extract mannitol medium (YEM) (mannitol 10 g, K2HPO4 0.5 g, MgSO4.7H2O 0.2 g, NaCl 0.1 g, yeast extract 0.4 g, and distilled water 1000 ml), pH 6.8, shaken at 150 rpm until the OD620 reached 0.4-0.6 (4-6 d) in the dark. Thereafter, 2.0 l of bacterial subculture was started by inoculating with material from the first culture (5 ml of the first culture per 250 ml of YEM media), until the OD620 reached to 0.2-0.4. At this stage, methyl jasmonate, jasmonic acid and genistein were added to culture so that the final concentraton for methyl jasmonate and jasmonic acid was 5, 10, 25, 50 and 100 μM and 5 μM for genistein. The culture was incubated for 48-96 h and the LCO extracted according to the following procedure.
# The LCO from the induced bacterial culture was isolated with XAD resins. Before using XAD resins for extraction, they were first conditioned. Each 40 grams of XAD resins were first washed two times with 20 mL acetone after conditioning for 15 minutes. This was followed by two washes of 20 mL methanol when the resins were conditioned for 15 minutes. Finally, the XAD resins were conditioned (5 min) and washed with 20 mL dd. water two times. The conditioned resins were placed in the refrigerator at 4° C. until use.
# For each one liter of bacterial culture, 40 grams of resin was added to the flask and these were shaken together overnight at 150 rpm. The culture along with the resin was poured through a funnel into a flask fitted with a course brass mesh (fine enough to allow the culture go quickly through and filter out the resin without any loss). At this stage, the resins are washed with water. In order to extract LCO from the resin, the XAD resin was passed through a vacuum filtration system. The fritted glass base of the system was fitted with Whatman #1 paper disk with the objective to keep the solvent with the bead until vacuum is applied. The resin beads were washed two times with 40 mL methanol after conditioning for 5 minutes. […]
# [2] = test system: Rhizobium leguminasorum strain RBL 1284; conditions: Rosas et al (1998); cited from earlier work
# B. japonicum USDA 110 = experiment: LCO production by B. japonicum USDA 110 (butanol extraction, HPLC); type: cell-based, Bradyrhizobium japonicum
# Method: Cultures of B. japonicum (strain USDA 110) were grown at 28° C. in 600 ml of sterile yeast mannitol medium (YEM) at pH 6.8. The culture was shaken at 150 rpm until an OD620 of 0.4 to 0.6 was achieved (4 to 6 days). When the culture reached this stage, it was divided equally into four flasks (150 mL) and specific concentrations of JA and genistein were added to the cultures.
# One hundred and fifty mL of each culture were extracted with 40 mL of the HPLC-grade butanol (Fisher Science Ltd., 112 Colonnade Road, Nepean, ON, Canada) by shaking together for 5 minutes. The two phases were then allowed to separate by leaving the mixture to stand overnight. The upper layer (butanol) was collected with a glass pipette and 25 mL were placed in a 250 ml evaporation flask. LCO extract solutions were stored at 4° C. until evaporation. This step was conducted at 80° C. with a Yamato RE 500 Rotary Evaporator (Yamato Scientific American Inc., Orangeburge, N.Y., USA). The butanol phase was evaporated down to 2 to 3 mL. The resulting light brown material was dissolved in 4 ml of 18% acetonitrile and stored in the dark at 4° C. in a glass tube sealed with parafilm.
# For HPLC analysis we used a Vydac C18 reversed—phase column (VYDAC, Hesperia, Calif., USA) with a flow rate of 1.0 mL/min and a Vydac guard column (VYDAC, Hesperia, Calif., USA). We used at least 10 min. of isocratic run with 18% acetonitrile (AcN/H2O; w/w) to establish a baseline. The baseline value was always about 0.010. When a sample was loaded we conducted an isocratic elution with 18% AcN for 45 min. This step removed all non-polar light fractions. We then applied a gradient elution (18 to 82% AcN) for 70 min. LCOs begin to appear at 84 to 86 min of HPLC run time. We used B. japonicum Nod factor (BjV (C18:1, MeFuc)) obtained from G. Stacey (University of Tennessee, Knoxville, Tenn.) as a standard. The identity of the LCO was confirmed by the Complex Carbohydrate Research Center at the University of Georgia with FAB-MS and MALDI-TOF spectrometry analysis.
# There were two experiments conducted. In the first the treatments consisted of factorial combinations of two concentrations (0 and 20 μM) of two signal materials (JA and genistein (zhang and Smith, 1995)). The experiment was organized following a randomized complete block design with three blocks. In experiment 1, two temperatures were used (17 and 25° C.). […]
# Each of the above experiments was conducted two times and the experimental results were pooled and analyzed statistically by analysis of variance using the Statistical Analysis System computer package (SAS Institute Inc. 1980). […] Since the effects of temperature on growth were very large, the data from two temperatures used in the first experiment were analyzed separately.
SMILES,"production of LCOs, in words [1]","expression of nod genes, in words [2]","effect on LCO production, in words (B. japonicum USDA 110; 25° C., genistein present)","effect on LCO production, in words (B. japonicum USDA 110; JA alone, without genistein, either temperature)","effect on LCO production, in words (B. japonicum USDA 110; low temperature (17° C.), genistein present)",peak-time for LCO production (B. japonicum USDA 110; after genistein was added to the cell culture),LCO production compared with optimum genistein concentration (5 μM) ([1]; 100 μM)
"CC/C=C\C[C@H]1C(=O)CC[C@@H]1CC(=O)O [JA, [1R-[1α,2β(Z)]]-3-oxo-2-(pentenyl)cyclopentaneacetic acid]",induced the production of LCOs,induced expression of nod genes,not at 25 °C,can not promote LCO production,can improve LCO production,–,–
"O=c1c(-c2ccc(O)cc2)coc2cc(O)cc(O)c12 [GEN, 5,7,4′-trihydroxyisoflavone]",–,–,–,–,–,8 to 10 h,–
"CC/C=C\CC1C(=O)CCC1CC(=O)OC (stereo not drawn) [MeJA, methyl jasmonate]",induced the production of LCOs,induced expression of nod genes,–,–,–,–,substantially more LCO

# Source: patent publication US7262151B2, “Methods and compositions for production of lipo-chito oligosaccharides by rhizobacteria” (McGill University, priority 2001, dated 2007)
